Structures can show the parent of a compound that is named as a salt. Where two headings read alike, the source gives them in different places.
Columns and labels:
in vivo = assay: in vivo; set-up: species or system mice; details: male, C57BL/6J, mouse, 30 mg/kg; for half-life: T1/2 (plasma)
Description: Adult male C57BL/6J mice (8–9 weeks, 23–27 g) were purchased from the Jackson Laboratory, Bar Harbor, ME, USA. Mice were housed in ventilated cages with controlled temperature and humidity, and a 12 h light/dark cycle. Food and water were available ad libitum, and animals were habituated to the experimental room for three days before the start of the study. All procedures were conducted according to a protocol approved by the Texas Tech University Health Sciences Center Institutional Animal Care and Use Committee (protocol 21039, approved on 26 July 2023). […] Plasma and brain samples were collected 5, 20, 60, 120, and 180 min after the drug administration. […] Mice were deeply anesthetized with isoflurane and decapitated, followed by blood collection in a microtube containing heparin. Plasma was obtained by centrifugation of the microtube for 10 min at 5000× g at 4 °C. The brains were quickly removed and delicately cleansed on filter paper with sterile saline, the surface vasculature was removed using gauze tipped in saline, and the forebrains were quickly frozen using dry ice. Plasma and brain samples were stored at −80 °C until bioanalysis. The brain samples were homogenized at 1:10 (w/v) in LC-MS-grade water using BioSpec Tissue-Tearor Homogenizer. The plasma sample was diluted 10-fold (v/v) in LC-MS-grade water. The plasma samples and brain homogenates were subjected to protein precipitation using ice-cold acetonitrile (1:4 ratio) containing 0.1% formic acid along with the IS (10 ng/mL). The samples underwent continuous vortexing for 5 min, followed by centrifugation at 12,800× g at 4 °C. The resulting clear supernatant was used for injection into the mass spectrometer. LC-MS/MS analysis was conducted using a QTRAP 5500 mass spectrometer (SCIEX, Foster City, CA, USA) connected with a SHIMADZU Prominence LC system (Kyoto, Japan), consisting of an LC-30AD solvent delivery unit, a DGU-20A3R degassing unit, a CTO-30A column oven, and a SIL-30AC autosampler. Chromatographic separation was achieved on an EVO-C18 100Å column (1.7 µm i.d., 50 × 2.1 mm). The mobile phase comprised 0.1% formic acid in water (A) and 0.1% formic acid in acetonitrile (B) at a flow rate of 0.3 mL/min. […] The autosampler and column temperatures were 4 °C and 40 °C, respectively. The injection volume was 2 μL. The mass spectrometric detection of the analytes was executed using multiple reaction monitoring (MRM) with an electrospray ionization (ESI) source in positive ion mode. The conditions were curtain gas, 35 psi; ion spray voltage, 5500 V; temperature, 500 °C; ion source gas 1, 50 psi; and ion source gas 2, 55 psi. […] For milnacipran-d10, which served as the IS, the MH^+ was monitored at m/z 257.2, whereas a fragment at m/z 110.2 was monitored as the product ion. […] Data acquisition and processing were carried out using Sciex Analyst (version 1.7) and MultiQuant software (version 3.0), respectively. The pharmacokinetic parameters were assessed using standard non-compartmental analysis. Microsoft Excel and GraphPad Prism 8.4.3 software were used for calculations and graphical presentation. The apparent first-order terminal rate constant (Kel) with 95% confidence interval (95% CI) was obtained in Prism by linear regression of log-transformed plasma concentration versus time data. The linear trapezoidal model was used for both IV and IP administration to determine area under the curve from time 0 to 3 h (AUC0-3). AUC0-∞ (area under the curve from time 0 to infinity) was obtained by extrapolation to infinity, using the mean concentration at the terminal time point and Kel. The standard errors (SE) of AUC0-3 and AUC0-∞ were calculated applying Bailer’s method for sparse data. Cmax and Tmax values after IP administration are based on actual measurements for the noted sampling time-points. The terminal T1/2 with CI was calculated as 0.693/Kel. […] For the IV route, Vd was calculated using the formula Dose/C0, and clearance (Cl) was determined as Vd*Kel. […]

[1] = human, in vivo, cited from earlier work
[2] = human; cited from earlier work
[3] = cited from earlier work

## CCN(CC)C(=O)C1(c2ccccc2)CC1CN (racemic) [milnacipran, (±)-[1R(S), 2S(R)]-2-(aminomethyl)-N, N-diethyl-1-phenylcyclopropanecarboxamide hydrochloride]
In vivo
  bioavailability: 92.5%
In vivo; ip
  AUC(0-inf): 11000 ng·h/mL
  AUC(0-t): 10300 ng·h/mL
  Cmax: 8530 ± 690 ng/mL
  Kterm (plasma): 0.016 (0.013 to 0.019) min^−1
  MRT: 58.3 min
  Tmax: 5 min
  Vd: 3.37 L/kg
  clearance: 39.5 mL/min/kg
  half-life: 42.5 min
In vivo; ip, Tmax (brain)
  Tmax: ~60 min
In vivo; iv
  AUC(0-inf): 11800 ng·h/mL
  AUC(0-t): 10400 ng·h/mL
  Kterm (plasma): 0.012 (0.011 to 0.013) min^−1
  MRT: 57 min
  T1/2 (plasma): 59.2 (54.4 to 64.1) min
  Vd: 3.65 L/kg
  clearance: 42.7 mL/min/kg
  half-life: 59 min
In vivo; iv, Tmax (brain)
  Tmax: ~60 min
[1]; po
  bioavailability: ~ 90%
  time to peak plasma concentrations: 2 to 4 h
[1]
  terminal elimination half-life: 360 to 600 min
  volume of distribution: 5.3 L/kg
[2]
  Plasma protein binding: around 13%
[3]; rat, in vivo, iv, 4.5 mg/kg
  half-life: 402 min
[3]; rats, intranasal, 20 mg/kg
  half-life: 67.9 min

From PMC10819729 (Pharmaceutics, 2023)
